Assay results as given in patent US9765092B2, “Tricyclic piperidine compounds” (ACTELION PHARMACEUTICALS LTD, priority 2013, dated 2017).

Each compound was assayed against human TPH1 (Homo sapiens (Human), UniProt P17752) (assay: Biochemical in vitro assay using fluorescence readout (TPH1 inhibition)). Details: full length human TPH1, 40 μM L-tryptophan, 15° C., 60 minutes, fluorescence at 540 nm; mean if determined several times.
Chain of human TPH1 (P17752 whole entry): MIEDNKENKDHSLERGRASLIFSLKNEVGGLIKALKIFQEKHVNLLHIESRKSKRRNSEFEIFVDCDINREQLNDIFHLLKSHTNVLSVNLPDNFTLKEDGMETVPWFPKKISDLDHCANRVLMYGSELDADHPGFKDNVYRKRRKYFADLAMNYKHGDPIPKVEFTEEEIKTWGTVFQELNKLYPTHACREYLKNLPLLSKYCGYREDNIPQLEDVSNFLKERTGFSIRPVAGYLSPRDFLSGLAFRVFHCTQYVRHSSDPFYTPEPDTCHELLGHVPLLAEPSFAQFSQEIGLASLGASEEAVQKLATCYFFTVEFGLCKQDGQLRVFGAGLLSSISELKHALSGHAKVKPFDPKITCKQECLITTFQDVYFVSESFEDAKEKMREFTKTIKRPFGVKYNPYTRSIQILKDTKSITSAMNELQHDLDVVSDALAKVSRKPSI

Structure (SMILES) | IC50 [µM]
Cc1nn2c3c(nc2s1)CCN(C(=O)COc1ccc(N(C)CCO)nc1Cl)C3c1ccc(Cl)cc1F (stereo not drawn) [Example 1.4.13, 1-(5-(4-Chloro-2-fluorophenyl)-2-methyl-7,8-dihydro-[1,3,4]thiadiazolo[2′,3′:2,3]imidazo[4,5-c]pyridin-6(5H)-yl)-2-((2-chloro-6-((2-hydroxyethyl)-(methyl)amino)pyridin-3-yl)oxy)ethanone] | 0.005
CCNc1nn(C)c(C2c3c(nc4sc(C)nn34)CCN2C(=O)COc2ccc(N3CCOCC3)nc2Cl)c1C (stereo not drawn) [Example 1.51.1, 2-((2-Chloro-6-morpholinopyridin-3-yl)oxy)-1-(5-(3-(ethylamino)-1,4-dimethyl-1H-pyrazol-5-yl)-2-methyl-7,8-dihydro-[1,3,4]thiadiazolo[2′,3′:2,3]imidazo[4,5-c]pyridin-6(5H)-yl)ethanone] | 0.058
Cc1nn2c3c(nc2s1)CCN(C(=O)COc1ccc(NS(C)(=O)=O)nc1Cl)C3c1ccc(OCCO)cc1F (stereo not drawn) [Example 1.84.2, N-(6-Chloro-5-(2-(5-(2-fluoro-4-(2-hydroxyethoxy)phenyl)-2-methyl-7,8-dihydro-[1,3,4]thiadiazolo[2′,3′:2,3]imidazo[4,5-c]pyridin-6(5H)-yl)-2-oxoethoxy)pyridin-2-yl)methanesulfonamide] | 0.016
Cc1nn2c3c(nc2s1)CCN(C(=O)COc1ccc(N2CCOCC2)nc1Cl)C3c1cnc(N2CC(F)(F)C2)s1 (stereo not drawn) [Example 1.49.1, 2-((2-Chloro-6-morpholinopyridin-3-yl)oxy)-1-(5-(2-(3,3-difluoro-azetidin-1-yl)thiazol-5-yl)-2-methyl-7,8-dihydro-[1,3,4]thiadiazolo[2′,3′:2,3]imidazo[4,5-c]pyridin-6(5H)-yl)-ethanone] | 0.015
Cc1nn2c3c(nc2s1)CCN(C(=O)COc1ccc(N2CCOCC2)nc1Cl)C3c1cc(-c2nn[nH]n2)cs1 (stereo not drawn) [Example 1.63.1, 1-(5-(4-(2H-Tetrazol-5-yl)thiophen-2-yl)-2-methyl-7,8-dihydro-[1,3,4]-thiadiazolo-[2′,3′:2,3]imidazo[4,5-c]pyridin-6(5H)-yl)-2-((2-chloro-6-morpholinopyridin-3-yl)oxy)ethanone] | 0.023
Cc1nn2c3c(nc2s1)CCN(C(=O)COc1ccc(N2C(C)CCC2C)nc1Cl)C3c1ccc(Cl)cc1F (stereo not drawn) [Example 1.4.15, 1-(5-(4-chloro-2-fluorophenyl)-2-methyl-7,8-dihydro-[1,3,4]thiadiazolo[2′,3′:2,3]imidazo[4,5-c]pyridin-6(5H)-yl)-2-((2-chloro-6-(2,5-dimethylpyrrolidin-1-yl)pyridin-3-yl)oxy)ethanone] | 0.006

Same assay, conditions: human TPH1, fluorescence readout

Structure (SMILES) | IC50 [µM]
Cc1cnc(C2c3c(nc4sc(C)nn34)CCN2C(=O)COc2ccc(-c3ncco3)nc2Cl)c(F)c1 (stereo not drawn) [Example 1.31.13, 2-((2-chloro-6-(oxazol-2-yl)pyridin-3-yl)oxy)-1-(5-(3-fluoro-5-methylpyridin-2-yl)-2-methyl-7,8-dihydro-[1,3,4]thiadiazolo[2′,3′:2,3]imidazo[4,5-c]pyridin-6(5H)-yl)ethanone] | 0.016
COC(C)(C)c1ccc(C2c3c(nc4sc(C)nn34)CCN2C(=O)COc2ccc(NS(C)(=O)=O)nc2Cl)c(F)c1 (stereo not drawn) [Example 1.81.2, N-(6-chloro-5-(2-(5-(2-fluoro-4-(2-methoxypropan-2-yl)phenyl)-2-methyl-7,8-dihydro-[1,3,4]thiadiazolo[2′,3′:2,3]imidazo[4,5-c]pyridin-6(5H)-yl)-2-oxoethoxy)pyridin-2-yl)methanesulfonamide] | 0.132
CCc1nc(NS(C)(=O)=O)ccc1OCC(=O)N1CCc2nc3sc(C(F)F)nn3c2C1c1ccc(Cl)cc1F (stereo not drawn) [Example 8.1.2, N-(5-(2-(5-(4-chloro-2-fluorophenyl)-2-(difluoromethyl)-7,8-dihydro-[1,3,4]thiadiazolo[2′,3′:2,3]imidazo[4,5-c]pyridin-6(5H)-yl)-2-oxoethoxy)-6-ethylpyridin-2-yl)methanesulfonamide] | 0.01
Cc1ccccc1OCC(=O)N1CCc2nc3sccn3c2C1c1cccnc1F (stereo not drawn) [Example 6.2.4, 1-(5-(2-fluoropyridin-3-yl)-7,8-dihydrothiazolo[2′,3′:2,3]-imidazo[4,5-c]pyridin-6(5H)-yl)-2-(o-tolyloxy)ethanone] | 0.266
COC1(C)CN(c2ccc(OCC(=O)N3CCc4nc5sc(C)nn5c4C3c3ccc(Cl)cc3F)c(Cl)n2)C1 (stereo not drawn) [Example 1.4.43, 1-(5-(4-chloro-2-fluorophenyl)-2-methyl-7,8-dihydro-[1,3,4]thiadiazolo[2′,3′:2,3]imidazo[4,5-c]pyridin-6(5H)-yl)-2-((2-chloro-6-(3-methoxy-3-methylazetidin-1-yl)pyridin-3-yl)oxy)ethanone] | 0.035
Cc1cc(Cl)ccc1OCC(=O)N1CCc2nc3sccn3c2C1c1nc2ccccc2s1 (stereo not drawn) [Example 6.12.4, 1-(5-(benzo[d]thiazol-2-yl)-7,8-dihydrothiazolo-[2′,3′:2,3]imidazo[4,5-c]pyridin-6(5H)-yl)-2-(4-chloro-2-methylphenoxy)ethanone] | 0.036
CNS(=O)(=O)c1ccc(OCC(=O)N2CCc3nc4sc(C)nn4c3C2c2ccc(Cl)cc2F)c(Cl)n1 (stereo not drawn) [Example 1.4.60, 6-chloro-5-(2-(5-(4-chloro-2-fluorophenyl)-2-methyl-7,8-dihydro-[1,3,4]thiadiazolo[2′,3′:2,3]imidazo[4,5-c]pyridin-6(5H)-yl)-2-oxoethoxy)-N-methylpyridine-2-sulfonamide] | 0.036
Cc1nn2c3c(nc2s1)CCN(C(=O)COc1ccc(C#N)nc1Cl)C3c1ccc(C2CC2)cc1F (stereo not drawn) [Example 1.6.23, 6-chloro-5-(2-(5-(4-cyclopropyl-2-fluorophenyl)-2-methyl-7,8-dihydro-[1,3,4]thiadiazolo[2′,3′:2,3]imidazo[4,5-c]pyridin-6(5H)-yl)-2-oxoethoxy)picolinonitrile] | 0.008
Cc1nn2c3c(nc2s1)CCN(C(=O)COc1ccc(N(C)CC(F)(F)F)nc1Cl)C3c1ncc(C2CC2)cc1F (stereo not drawn) [Example 1.14.10, 2-((2-chloro-6-(methyl(2,2,2-trifluoroethyl)amino)pyridin-3-yl)oxy)-1-(5-(5-cyclopropyl-3-fluoropyridin-2-yl)-2-methyl-7,8-dihydro-[1,3,4]thiadiazolo[2′,3′:2,3]imidazo[4,5-c]pyridin-6(5H)-yl)ethanone] | 0.004
CCc1nc(C)ccc1OCC(=O)N1CCc2nc3sccn3c2C1c1c(C)noc1C (stereo not drawn) [Example 6.5.1, 1-(5-(3,5-dimethylisoxazol-4-yl)-7,8-dihydrothiazolo-[2′,3′:2,3]imidazo[4,5-c]pyridin-6(5H)-yl)-2-((2-ethyl-6-methylpyridin-3-yl)oxy)ethanone] | 0.117
Cc1nn2c3c(nc2s1)CCN(C(=O)COc1ccc(N(C)C)nc1Cl)C3c1ccc(Cl)cc1F (stereo not drawn) [Example 1.4.7, 1-(5-(4-chloro-2-fluorophenyl)-2-methyl-7,8-dihydro-[1,3,4]thiadiazolo[2′,3′:2,3]imidazo[4,5-c]pyridin-6(5H)-yl)-2-((2-chloro-6-(dimethylamino)pyridin-3-yl)oxy)ethanone] | 0.006
COCCOc1ccc(C2c3c(nc4sc(C)nn34)CCN2C(=O)COc2ccc(C(=O)NC3CC3)nc2Cl)c(F)c1 (stereo not drawn) [Example 1.83.1, 6-chloro-N-cyclopropyl-5-(2-(5-(2-fluoro-4-(2-methoxyethoxy)phenyl)-2-methyl-7,8-dihydro-[1,3,4]thiadiazolo[2′,3′:2,3]imidazo[4,5-c]pyridin-6(5H)-yl)-2-oxoethoxy)picolinamide] | 0.024
